pEC50, pIC50: −log10 of the molar value. Read-outs that look alike come from different tables or passages of the source.
How the values were obtained:
[1] = test system: transcripts in whole brain; settings: chronic lithium, ref McQuillin et al, 2007; cited from earlier work
C57BL/6 mice [2] = settings: 85 mg/kg i.p.; cited from earlier work
[3] = Mouse brain pharmacokinetics; format: in vivo; settings: for half-life: read-out: brain T1/2 (converted)
Description: Plasma, brain samples, and dose formulations, were analyzed as previously described using high performance liquid chromatography/mass spectrometry. Data acquisition and control system were created using Analyst 1.4 software (ABI Inc, Canada).

C57BL/6 mice [4] = experiment: Forced-swim test (FST); format: in vivo, mouse
Description: (§1) Compounds were administered between 9 am and 1 pm for 7 days prior to the start of behavioral testing, and after completion of each daily session during behavioral testing. Testing was performed 18–24 hr after the previous treatment to avoid transient effects. Amphetamine-induced hyperlocomotion (AIH) was performed as previously described on days 7–9 of treatment with activity measured before and after amphetamine challenge (AccuScan Instruments, Inc.). Forced-swim test (FST) behavior was performed as previously described on day 10 of treatment and total time spent immobile during a 6 min session was scored automatically (Ethovision; Noldus). Treatment effects were analyzed by one way analysis of variance (ANOVA) with post hoc analysis using Least Squared Differences test (SPSS v18.0 IBM).

C57BL/6 mice [5] = experiment: Amphetamine-induced hyperlocomotion (AIH); format: in vivo, mouse; settings: chronic i.p.; Cpd-60 45 mg/kg, SAHA 25 mg/kg; vs vehicle; amphetamine 3.5 mg/kg
Description: as §1

[6] = test system: H4K12 acetylation in HEK293 cells; experiment: H4K12 acetylation western blot, constant exposure and washout; format: cell-based, human; settings: for H4K12ac levels after washout: HEK293, 20 µM 24 hr, then 6 hr after media change; for H4K12ac levels, constant exposure: HEK293, 20 µM for 24 hr
Description: Frozen mouse brains (n = 6/treatment group) were rapidly dissected at 4°C to isolate frontal cortex (including PFC), ventral striatum (including NAc), and HIP for protein extraction. […] Solutions for protein extraction were supplemented with 5 mM sodium butyrate to suppress residual HDAC activity. […] Densitometric quantification was performed using Image J software (NIH) and statistical comparison to vehicle-treated controls by two-tailed t-test.
Protein was extracted by douncing in suspension buffer: 0.1 M NaCl, 0.01 M TrisCl (ph7.6), 0.001 M EDTA (pH 8.0), then immediately diluted with an equal volume of 2x SDS-gel loading buffer: 100 mM TrisCl (ph 6.8), 4% SDS, 20% glycerol, 200 mM DTT. […] Media was aspirated and cells collected for Western blotting using 40 μL buffers as detailed above for mouse brain. Solutions for protein extraction were supplemented with 5 mM sodium butyrate to suppress residual HDAC activity. Samples were denatured at 95°C for 5 min, passaged 3x through a 25 gauge needle and centrifuged at 10,000g for 10 min at room temperature and protein quantification performed using a BCA protein assay kit #23225 (Pierce). […] Chemiluminescent detection of immunoreactivity was performed using SuperSignal West Dura Substrate #34076 (Pierce) with subsequent densitometric quantification using Image J software (NIH) and statistical comparison to vehicle-treated controls by two-tailed t-test.

[7] = test system: transcripts in PFC, NAc and HIP; experiment: Whole genome transcript profiling of brain regions (microarray); format: in vivo, mouse; settings: for overlap with the 121 transcripts modulated by lithium: Gene Set Enrichment Analysis; for transcripts altered across the three regions: PFC, NAc, HIP compiled, ≥[…] vs vehicle; for transcripts up- or down-regulated, summed across the three brain regions: Tukey's HSD p<0.05 vs vehicle
Description: Frozen mouse brains (n = 6/treatment group) were rapidly dissected at 4°C to isolate medial prefrontal cortex (PFC), nucleus accumbens (NAc) and hippocampus (HIP) for mRNA extraction. Whole genome transcript profiling was performed using the Illumina MouseWG-6 Expression BeadChip with subsequent validation by quantitative real-time PCR (qPCR) and is available online at the NCBI Gene Expression Omnibus repository (GSE47452).
Frozen mouse brains (n = 6/ treatment group) were rapidly dissected at 4°C, isolating medial prefrontal cortex, nucleus accumbens and hippocampus. […] For microarray experiments on Illumina MouseWG-6 BeadChips, RNA samples were pooled from two biological replicates such that the total number of samples was 27 (3 treatment groups x 3 brain regions x 3 RNA pools representing two mice per pool). All microarray analysis and gene set analysis (GSA) was performed using GeneSpring software (v.11.5.1) with raw signals adjusted using quantile normalization and baseline transformation with the median signal in all samples set to zero. Data were included in subsequent analyses if the normalized signal, thresholded at 0.8, was ‘present’ for 3 of 3 replicates for like treatment and tissue groups. […] Primer sequences for qPCR validation were designed using NCBI PRIMER-BLAST (Table S2).

[8] = test system: H4K12ac around TSS of Agxt2l1, Sgk1, Sult1a1, Tsc22d3; experiment: Chromatin immunoprecipitation (H4K12ac) of nucleus accumbens with qPCR; settings: NAc; 0.5 kB downstream of each TSS; 45 mg/kg i.p. 10 days
[9] = test system: histone H4K12 acetylation in cultured primary mouse neuronal cells; experiment: Mouse primary neuronal histone acetylation assay; settings: Neuron, 24 h, read-out: EC50 for H4K12 acetylation
HDAC8 = target: T1, HDAC8 (Homo sapiens, UniProt Q9BY41); experiment: HDAC inhibition assay, recombinant enzyme, Caliper EZ reader
T1 sequence (Q9BY41 1-377): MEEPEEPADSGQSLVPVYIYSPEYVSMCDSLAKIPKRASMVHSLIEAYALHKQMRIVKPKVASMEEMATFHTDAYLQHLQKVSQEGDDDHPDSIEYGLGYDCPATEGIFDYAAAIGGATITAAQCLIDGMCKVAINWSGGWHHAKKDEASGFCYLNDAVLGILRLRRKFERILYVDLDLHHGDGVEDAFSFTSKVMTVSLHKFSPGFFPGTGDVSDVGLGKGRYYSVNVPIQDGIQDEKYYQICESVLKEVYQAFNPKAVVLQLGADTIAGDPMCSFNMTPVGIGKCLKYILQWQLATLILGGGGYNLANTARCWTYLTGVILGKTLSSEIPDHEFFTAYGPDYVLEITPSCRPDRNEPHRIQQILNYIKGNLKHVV

[10] = test system: 80 common CNS targets including receptors, channels and transporters; experiment: CNS target binding assays (Cerep High-Throughput Profile P-3); settings: 10 µM, duplicate; significance 50% inhibition of control binding
Description: The specific ligand binding to the receptors is defined as the difference between the total binding and the nonspecific binding determined in the presence of an excess of unlabelled ligand. […] The experiment was accepted in accordance with Cerep’s validation Standard Operating Procedure.

mice = experiment: Tolerability of chronic treatment; format: in vivo; settings: Cpd-60 45 mg/kg i.p., SAHA 25 mg/kg i.p.
HDAC5 = HDAC5 (Homo sapiens, UniProt Q9UQL6); experiment: HDAC inhibition assay, recombinant enzyme, Caliper EZ reader
HDAC4 = HDAC4 (Homo sapiens, UniProt P56524); experiment: biochemical
HDAC7 = target: T2, HDAC7 (Homo sapiens, UniProt Q8WUI4); experiment: HDAC inhibition assay, recombinant enzyme, Caliper EZ reader
T2 sequence (Q8WUI4 1-952): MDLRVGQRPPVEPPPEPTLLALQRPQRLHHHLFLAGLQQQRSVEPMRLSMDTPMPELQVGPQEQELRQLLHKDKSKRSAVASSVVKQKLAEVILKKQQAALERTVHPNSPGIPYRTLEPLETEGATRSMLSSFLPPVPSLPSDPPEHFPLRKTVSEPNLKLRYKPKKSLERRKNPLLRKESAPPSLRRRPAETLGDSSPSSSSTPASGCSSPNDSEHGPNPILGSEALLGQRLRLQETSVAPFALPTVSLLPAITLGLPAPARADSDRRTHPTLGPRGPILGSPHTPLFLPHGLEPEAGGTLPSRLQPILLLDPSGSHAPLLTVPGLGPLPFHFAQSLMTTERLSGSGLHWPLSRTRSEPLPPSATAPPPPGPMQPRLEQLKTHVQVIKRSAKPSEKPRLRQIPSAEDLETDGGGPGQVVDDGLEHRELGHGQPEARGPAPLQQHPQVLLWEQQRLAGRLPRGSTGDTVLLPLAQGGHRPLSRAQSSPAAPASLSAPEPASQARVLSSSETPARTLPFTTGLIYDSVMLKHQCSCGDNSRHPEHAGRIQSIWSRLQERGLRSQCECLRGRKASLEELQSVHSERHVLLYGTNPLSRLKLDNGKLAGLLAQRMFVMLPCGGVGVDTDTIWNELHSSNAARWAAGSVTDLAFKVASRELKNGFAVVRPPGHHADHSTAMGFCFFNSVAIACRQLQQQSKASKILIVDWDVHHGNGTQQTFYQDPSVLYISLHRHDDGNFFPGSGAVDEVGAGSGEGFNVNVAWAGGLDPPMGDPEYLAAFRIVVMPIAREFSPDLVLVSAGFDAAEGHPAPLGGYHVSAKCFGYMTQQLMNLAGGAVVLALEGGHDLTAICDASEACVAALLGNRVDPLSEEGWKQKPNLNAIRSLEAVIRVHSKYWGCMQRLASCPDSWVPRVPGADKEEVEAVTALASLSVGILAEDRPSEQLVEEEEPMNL

[11] = Positron emission tomography of carbon-11 labeled Cpd-60; format: in vivo, baboon (Papio anubis); settings: intravenous, preliminary unpublished data
Description: Male 11 wk old C57BL/6 mice were utilized for pharmacokinetic, behavioral and biochemical analyses. One female baboon (Papio Anubis) was used to determine brain uptake and pharmacokinetics of Cpd-60. […] Non-human primate housing conditions and feeding regimens were coordinated by the professional investigative staff at the Brookhaven Laboratory Animal Facility which included social housing in cages appropriate for the physical and behavioral health of the individual animal. Animals were fed a 3x per day with additional nutritional supplements provided as prescribed by the attending veterinarian. Environmental enrichment included audio, video and tactile elements (e.g. listening to the radio, watching television, playing with toys and human interaction) and were provided on a daily basis to promote psychological well-being. All procedures were performed without compromising animal welfare and all efforts were made to minimize suffering including adequate use of anesthesia (ketamine, isoflurane) in the baboon imaging experiment. The baboon was not sacrificed following the study and further effort was taken to minimize suffering by allowing an interval of at least one month between subsequent imaging studies in the same animal.
C57BL/6 male mice were purchased at 10 weeks of age from The Jackson Laboratory and Taconic Farms. […]

HDAC9 = HDAC9 (Homo sapiens, UniProt Q9UKV0); experiment: HDAC inhibition assay, recombinant enzyme, Caliper EZ reader
[12] = chronic i.p., day 10, Cpd-60 45 mg/kg, SAHA 25 mg/kg, vs vehicle

Sequence of HDAC4 (P56524 whole entry): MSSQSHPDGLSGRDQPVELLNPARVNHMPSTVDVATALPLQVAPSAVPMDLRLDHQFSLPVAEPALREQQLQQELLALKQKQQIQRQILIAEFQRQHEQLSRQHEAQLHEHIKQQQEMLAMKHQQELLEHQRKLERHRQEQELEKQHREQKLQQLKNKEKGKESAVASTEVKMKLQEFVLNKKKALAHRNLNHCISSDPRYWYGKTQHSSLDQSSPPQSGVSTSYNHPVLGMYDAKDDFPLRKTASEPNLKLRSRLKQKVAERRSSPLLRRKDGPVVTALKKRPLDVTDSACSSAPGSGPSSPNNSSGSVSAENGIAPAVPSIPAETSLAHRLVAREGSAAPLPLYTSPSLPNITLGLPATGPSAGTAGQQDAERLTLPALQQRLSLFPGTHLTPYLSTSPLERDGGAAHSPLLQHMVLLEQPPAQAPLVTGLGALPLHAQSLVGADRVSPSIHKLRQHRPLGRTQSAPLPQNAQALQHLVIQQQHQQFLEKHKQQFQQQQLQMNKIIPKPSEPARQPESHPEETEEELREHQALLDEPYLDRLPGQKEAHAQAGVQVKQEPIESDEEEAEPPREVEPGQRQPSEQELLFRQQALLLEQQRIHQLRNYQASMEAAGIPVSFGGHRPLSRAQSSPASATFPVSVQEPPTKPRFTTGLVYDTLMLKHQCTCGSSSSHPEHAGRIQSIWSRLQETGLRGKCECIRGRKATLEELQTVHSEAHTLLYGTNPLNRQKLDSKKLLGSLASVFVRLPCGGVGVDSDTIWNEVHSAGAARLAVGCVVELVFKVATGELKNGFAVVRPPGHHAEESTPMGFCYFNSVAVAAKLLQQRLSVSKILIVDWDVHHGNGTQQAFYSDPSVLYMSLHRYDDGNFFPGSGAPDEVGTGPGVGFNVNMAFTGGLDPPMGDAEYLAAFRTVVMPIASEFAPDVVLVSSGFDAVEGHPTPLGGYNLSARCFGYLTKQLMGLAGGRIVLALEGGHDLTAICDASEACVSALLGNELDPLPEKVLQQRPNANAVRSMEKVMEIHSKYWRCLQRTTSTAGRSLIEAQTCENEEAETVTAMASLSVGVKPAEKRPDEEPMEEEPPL
Sequence of HDAC5 (Q9UQL6 whole entry): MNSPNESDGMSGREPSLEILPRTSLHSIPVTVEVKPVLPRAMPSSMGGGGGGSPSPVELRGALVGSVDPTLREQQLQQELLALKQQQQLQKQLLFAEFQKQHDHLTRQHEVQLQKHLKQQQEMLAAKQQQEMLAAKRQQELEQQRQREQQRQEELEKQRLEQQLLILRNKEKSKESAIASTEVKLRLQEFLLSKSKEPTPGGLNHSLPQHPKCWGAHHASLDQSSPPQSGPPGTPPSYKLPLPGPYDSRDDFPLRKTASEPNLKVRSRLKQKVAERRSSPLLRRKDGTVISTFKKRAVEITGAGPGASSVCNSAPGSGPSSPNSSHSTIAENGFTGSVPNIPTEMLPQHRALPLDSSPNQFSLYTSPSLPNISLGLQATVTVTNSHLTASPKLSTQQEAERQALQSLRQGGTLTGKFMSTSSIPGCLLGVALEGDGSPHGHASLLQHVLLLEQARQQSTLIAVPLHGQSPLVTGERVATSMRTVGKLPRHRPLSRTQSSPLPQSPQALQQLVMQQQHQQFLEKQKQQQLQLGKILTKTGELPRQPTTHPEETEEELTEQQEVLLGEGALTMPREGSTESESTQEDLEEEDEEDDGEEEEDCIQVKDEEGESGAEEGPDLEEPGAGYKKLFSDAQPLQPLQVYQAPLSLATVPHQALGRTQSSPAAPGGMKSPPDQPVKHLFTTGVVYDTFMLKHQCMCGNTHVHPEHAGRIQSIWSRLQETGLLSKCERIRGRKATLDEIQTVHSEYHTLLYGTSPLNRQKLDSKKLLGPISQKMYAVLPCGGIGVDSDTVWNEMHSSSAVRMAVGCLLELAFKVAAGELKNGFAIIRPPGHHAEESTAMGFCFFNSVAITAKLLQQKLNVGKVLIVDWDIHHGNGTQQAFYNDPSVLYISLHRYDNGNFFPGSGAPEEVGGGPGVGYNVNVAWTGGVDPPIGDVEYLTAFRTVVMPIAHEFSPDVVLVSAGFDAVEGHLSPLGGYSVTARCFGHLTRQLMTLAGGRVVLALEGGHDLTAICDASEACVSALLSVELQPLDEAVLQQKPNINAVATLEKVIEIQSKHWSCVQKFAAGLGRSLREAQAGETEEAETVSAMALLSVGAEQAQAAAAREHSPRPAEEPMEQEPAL
Sequence of HDAC9 (Q9UKV0 whole entry): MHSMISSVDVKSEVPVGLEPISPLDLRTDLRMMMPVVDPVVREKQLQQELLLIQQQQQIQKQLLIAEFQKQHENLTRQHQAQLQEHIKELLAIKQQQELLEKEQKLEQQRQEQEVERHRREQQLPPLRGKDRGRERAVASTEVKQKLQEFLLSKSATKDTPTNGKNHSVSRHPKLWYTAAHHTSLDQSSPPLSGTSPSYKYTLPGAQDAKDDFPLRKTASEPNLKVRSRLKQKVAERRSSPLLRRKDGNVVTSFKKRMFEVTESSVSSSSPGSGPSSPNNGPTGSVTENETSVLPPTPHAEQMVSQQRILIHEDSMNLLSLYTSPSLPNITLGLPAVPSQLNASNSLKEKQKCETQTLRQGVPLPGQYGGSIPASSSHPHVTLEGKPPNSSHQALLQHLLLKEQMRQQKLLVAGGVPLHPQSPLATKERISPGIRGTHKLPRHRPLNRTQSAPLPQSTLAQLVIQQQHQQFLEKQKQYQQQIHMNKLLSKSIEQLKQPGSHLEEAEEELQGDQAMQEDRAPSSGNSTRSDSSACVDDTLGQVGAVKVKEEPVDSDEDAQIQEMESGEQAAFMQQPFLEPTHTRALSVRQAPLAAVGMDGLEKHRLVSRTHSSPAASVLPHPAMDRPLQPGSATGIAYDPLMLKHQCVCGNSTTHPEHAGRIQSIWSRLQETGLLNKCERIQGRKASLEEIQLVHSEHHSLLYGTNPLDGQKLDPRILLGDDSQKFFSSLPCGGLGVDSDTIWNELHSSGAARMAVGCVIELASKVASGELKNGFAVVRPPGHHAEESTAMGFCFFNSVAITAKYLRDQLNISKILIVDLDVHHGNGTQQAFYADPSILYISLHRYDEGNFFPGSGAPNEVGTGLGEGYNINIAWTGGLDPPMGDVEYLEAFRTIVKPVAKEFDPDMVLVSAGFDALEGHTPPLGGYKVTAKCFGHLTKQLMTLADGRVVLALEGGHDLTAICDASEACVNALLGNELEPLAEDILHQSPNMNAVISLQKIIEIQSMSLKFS

## [Li] [lithium]
[1]
  Agxt2l1 fold change: 2.73 fold change
  Igfbp5 fold change: -1.56 fold change
  Mef2c fold change: -1.22 fold change
  Mfsd2 fold change: 2.65 fold change
  Nrxn1 fold change: -1.18 fold change
  Per2 fold change: 2.47 fold change
  Qdpr fold change: -1.46 fold change
  Sgk1 fold change: 2.85 fold change
  Sult1a1 fold change: 6.28 fold change
  Tsc22d3 fold change: 1.95 fold change
  Usp54 fold change: 1.57 fold change
C57BL/6 mice [2]
  reduction in immobility time: 48%

## O=C(CCCCCCC(=O)Nc1ccccc1)NO [SAHA, suberoylanilide hydroxamic acid]
[3]; C57BL/6, mouse, brain, ip
  half-life: 0.44 h
[3]; systemic treatment
  time until cleared from the brain: ≤ 2 h
C57BL/6 mice [4]; [12]
  reduction in immobility time: did not influence mouse behavior in either paradigm
C57BL/6 mice [5]
  reduction of amphetamine-induced hyperlocomotion: no effect
[6]
  H4K12ac levels after washout: only Cpd-60-treated cells showed persistent increases in H4K12ac
  H4K12ac levels, constant exposure: elevated H4K12ac levels
[7]
  overlap with the 121 transcripts modulated by lithium: no significant overlap
  transcripts altered across the three regions: 288
  transcripts up- or down-regulated, summed across the three brain regions: 1530
[7]; ≥[…], post hoc p<0.05
  downregulated transcripts HIP (total): 148
  downregulated transcripts NAc (total): 16
  downregulated transcripts PFC (total): 5
  upregulated transcripts HIP (total): 104
  upregulated transcripts NAc (total): 5
  upregulated transcripts PFC (total): 7

## CC(=O)Nc1ccc(C(=O)Nc2cc(-c3cccs3)ccc2N)cc1 [Cpd-60]
[8]
  H4K12ac levels downstream of the TSS: lower than vehicle-treated controls
[9]
  pEC50: 5.14
HDAC8
  pIC50: < 4.52
[3]; C57BL/6, mouse, brain, intraperitoneal, 45 mg/kg, systemic treatment, read-out: brain concentration maintained for at least 8 hr
  concentration at 8 hr: > 100 nM
[3]; C57BL/6, mouse, brain, ip, 45 mg/kg, read-out: brain maximum concentration (Cmax)
  Cmax: 830 nM
[3]; C57BL/6, mouse, brain, ip
  half-life: 6.44 h
[3]; systemic treatment
  time to peak brain concentration: ≤ 5 min
C57BL/6 mice [4]; [12]
  reduction in immobility time: 67%
[10]
  binding to 80 CNS targets: no significant binding to any of the targets
mice
  tolerability of treatment for longer than 10 days: not well tolerated
C57BL/6 mice [5]
  reduction of amphetamine-induced hyperlocomotion: 36%
HDAC5
  pIC50: < 4.52
HDAC4
  pIC50: < 4.52
HDAC7
  pIC50: < 4.52
[6]
  H4K12ac levels after washout: persistent increases in H4K12ac
  H4K12ac levels, constant exposure: elevated H4K12ac levels
[11]
  brain uptake by PET: reaches the brain, albeit at low levels relative to plasma
[7]
  overlap with the 121 transcripts modulated by lithium: 11
  transcripts altered across the three regions: 390
  transcripts up- or down-regulated, summed across the three brain regions: 1609
HDAC9
  pIC50: < 4.52

## CNCCCN1c2ccccc2CCc2ccccc21 [desipramine]
C57BL/6 mice [4]; 15 mg/kg i.p., n = 16/group, data not shown
  reduction in immobility time: 55%
